Measured values reported in patent US11839212B2, “Synergistic pesticidal compositions and methods for delivery of insecticidal active ingredients” (0903608 B.C. Ltd., priority 2018, dated 2023).
Where two headings read alike, the source gives them in different places.

Legend:
Experiment in all cases: Synergistic Growth Inhibition Assay (MIC and FIC index, 96-well, resazurin)
Type in all cases: cell-based
[1] = system: Botrytis cinerea; conditions: 48 hours incubation; for MIC: Botrytis cinerea, 48 h
Protocol: (§1) In some embodiments, the synergistic action between the pesticidal active ingredient, and the at least one C6-C10 (or alternatively C11 or C12) saturated or unsaturated aliphatic acid components of the pesticidal compositions according to embodiments of the present disclosure was tested using a Synergistic Growth Inhibition Assay, which is derived from and related to a checkerboard assay as is known in the art for testing of combinations of antimicrobial agents. In the Synergistic Growth Inhibition Assay used in accordance with some embodiments of the present disclosure, multiple dilutions of combinations of pesticidal active ingredient and at least one C6-C10 saturated or unsaturated aliphatic acid agents are tested in individual cells for inhibitory activity against a target pest or pathogenic organism. In one such embodiment, the combinations of pesticidal active ingredient and C6-C10 (or alternatively C11 or C12) saturated or unsaturated aliphatic acid agents may preferably be tested in decreasing concentrations. In a further such embodiment, the combinations of pesticidal active ingredient and C6-C10 (or alternatively C11 or C12) saturated or unsaturated aliphatic acid agents may be tested in increasing concentrations. These multiple combinations of the pesticidal active ingredient and at least one C6-C10 (or alternatively C11 or C12) saturated or unsaturated aliphatic acid agents may be prepared in 96-well microtiter plates. In one such embodiment, the Synergistic Growth Inhibition Assay then comprises rows which each contain progressively decreasing concentrations of the pesticidal active ingredient and one or more C6-C10 (or alternatively C11 or C12) saturated or unsaturated aliphatic acid agents to test for the MIC of the agents in combination at which growth of the target pest or pathogen is inhibited. Thus, each well of the microtiter plate is a unique combination of the two agents, at which inhibitory efficacy of the combination against the target pest or pathogen can be determined.
(§2) In one embodiment according to the present disclosure, for each row of microtiter cells in the Synergistic Growth Inhibition Assay, the FIC index is calculated from the lowest concentration of the pesticidal active ingredient and one or more C6-C10 saturated or unsaturated aliphatic acid agents necessary to inhibit growth of a target pest or pathogen. The FIC of each component is derived by dividing the concentration of the agent present in that well of the microtiter plate by the minimal inhibitory concentration (MIC) needed of that agent alone to inhibit growth of the target pest or pathogen. The FIC index is then the sum of these values for both agents in that well of the microtiter plate. […] Fractional inhibitory concentration indices may then used as measure of synergy. […] When the FIC index is equal to 1, the combination is additive.
(§3) Then, serial dilutions of these initial compositions in successive wells in the row of the microtiter plate were used to assay the pesticidal composition under the same conditions to determine the concentration of the composition combining the two agents corresponding to the microtiter well in which growth inhibition of the target pest or organism ceases.
(§4) Similarly to as described above, Resazurin was used as an indicator of growth or inhibition of growth of Botrytis cinerea in the exemplary Synergistic Growth Inhibition Assay. In addition to the color change of the resazurin, an optical or visual examination of the microtiter well may also be made to additionally determine the presence of growth or inhibition of growth of the Botrytis cinerea.

[2] = system: Fusarium oxysporum; conditions: Fusarium oxysporum, Compound B alone
Protocol: as §1, §2, §3
Resazurin dye (also known as Alamar blue dye) was used as an indicator to determine the presence of growth or inhibition of growth of Fusarium oxysporum in the wells of the 96 well microtiter plates used in the exemplary Synergistic Growth Inhibition Assay. In addition to the color change of the resazurin dye in the presence of growth of the Fusarium oxysporum, an optical or visual examination of the microtiter well may also be made to additionally determine the presence of growth or inhibition of growth of the Fusarium oxysporum.

[3] = system: Sclerotinia sclerotiorum; conditions: Table 33; Compound B alone; 7 days incubation
Protocol: as §1, §2, §3
as §4, with “Sclerotinia sclerotiorum” for “Botrytis cinerea”, “Sclerotinia sclerotiorum.” for “Botrytis cinerea.”

[4] = Table 59, Compound B alone, read-out: MIC (B)
[5] = 48 h, Table 27, 48 hours incubation, read-out: MIC (B)
[6] = 48 h, Table 30, 48 hours incubation, read-out: MIC (B)
[7] = Table 51, Compound B alone, read-out: MIC (B)

`CCCCCCCCC(O)C(=O)O` (stereo not drawn) [2-Hydroxydecanoic acid] gave an MIC [1, 4] of 312 µg/mL.
In the case of `Cc1cc(C(F)(F)F)nn1CC(=O)N1CCC(c2nc(C3=NOC(c4c(F)cccc4F)C3)cs2)CC1` (stereo not drawn) [Oxathiapiprolin, reference compound], the “MIC (A)” value ([1]; Table 55, Compound A alone) is reported as 500 µg/mL.
`CCCCC/C=C/C(=O)O` [Trans-2-octenoic acid, trans-2-octenoic acid] gave an MIC ([2]; 24 h, Table 3, 24 hour incubation, read-out: MIC(B)) of 149 µg/mL, an MIC ([2]; 24 h, Table 4, 24 hour incubation, read-out: MIC (B)) of 149 µg/mL and an MIC [2, 5] of 312 µg/mL. It also gave an MIC [2, 6] of 156 µg/mL, an MIC ([2]; 48 h, Table 31, 48 hours incubation, read-out: MIC (B)) of 156 µg/mL and an MIC ([2]; 48 h, Table 32, 48 hours incubation, read-out: MIC (B)) of 312 µg/mL.
In the case of `CCCCCCCC/C=C\CCCCCCCC(=O)O` [(9Z)-octadecenoic acid], the “MIC (B)” value [3] is reported as 5000 µg/mL, the “MIC (B)” value ([1]; Table 49, Compound B alone) is reported as 5000 µg/mL and the “MIC (B)” value ([1]; Table 50, Compound B alone) is reported as 5000 µg/mL.
With `CCC(CC)(CC)C(=O)O` [2,2-Diethylbutanoic acid] the MIC [1, 7] was 250 µg/mL and the MIC [1, 4] was 250 µg/mL.
`CON=C(C(=O)OC)c1ccccc1CON=C(C)c1cccc(C(F)(F)F)c1` [Trifloxystrobin, reference compound] was tested, and the MIC ([1]; Table 58, Compound A alone, read-out: MIC (A)) was 250 µg/mL and the MIC ([1]; Table 59, Compound A alone, read-out: MIC (A)) was 250 µg/mL.
`CC=CCCC(=O)O` [4-Hexenoic acid] showed an MIC [2, 5] of 312 µg/mL, an MIC [2, 6] of 312 µg/mL and an MIC ([1]; Table 43, Compound B alone, read-out: MIC (B)) of 312 µg/mL. The MIC ([1]; Table 45, Compound B alone, read-out: MIC (B)) was 312 µg/mL.
`CCCCCCCCC(C)C(=O)O` (stereo not drawn) [2-Methyldecanoic acid] was tested, and the MIC [1, 7] was 7.81 µg/mL, the MIC ([1]; Table 56, Compound B alone, read-out: MIC (B)) was 125 µg/mL and the MIC [1, 4] was 125 µg/mL.
`O=C(O)CCCCCCCO` [8-Hydroxyoctanoic acid] gave an MIC ([1]; read-out: MIC (B), Table 51, Compound B alone) of 1250 µg/mL, an MIC ([1]; read-out: MIC (B), Table 56, Compound B alone) of 2500 µg/mL and an MIC ([1]; read-out: MIC (B), Table 59, Compound B alone) of 1250 µg/mL.
`CCCCCCCCCC(=O)[O-].[K+]` [Decanoic acid, potassium salt, decanoic acid, potassium salt] gave an MIC ([2]; 24 h, read-out: MIC(B), Table 7, 24 hour incubation) of 78.1 µg/mL and an MIC ([2]; read-out: MIC (B), Table 8) of 78.1 µg/mL.
